Test results taken from patent US12213977B2, “Methods and compositions for treating melanoma” (THE REGENTS OF THE UNIVERSITY OF CALIFORNIA, priority 2017, dated 2025).
“Also recorded” adds a separate entry of the source. Where a SMILES comes first, the peptide text is derived from it. The star is where a group is joined. Cbz = O=C(OCc1ccccc1)*; CH2F = FC*

Key:
[1] = system: melanoma cell lines; test: CTRP pharmacogenomics drug sensitivity (AUC) across melanoma cell lines grouped by predicted differentiation subtype; type: cell-based; settings: for specificity of cell death-inducing compound for dedifferentiated melanoma cells: CTRP drug sensitivity profiles by subtype; for sensitivity (CTRP AUC) with increased dedifferentiation status: melanoma cell lines by predicted subtype, ANOVA P<0.01, irrespective of mutation status
Excerpt: Through the prediction of subtypes from the CCLE and GDSC dataset, the inventors utilized the matching drug sensitivity profiles available from the pharmacogenomics-based Cancer Therapeutics Response Portal (CTRP) (Seashore-Ludlow et al., 2015). […] These compounds are erastin, (1S,3R)-RSL3, ML162, and M210 (FIG. 3B).
Dataset from Hoek et al of melanoma cell lines was obtained from GSE4845 and batch normalized using ComBat from the R sva package. Dataset from Mica et al for the melanocyte differentiation stage analysis was obtained from GSE45227. Gene expression profiles from samples representing the growth conditions for each specified stage of differentiation based on the original manuscript was used for analysis (day 0 embryonic stem cell, day 6 neural crest cell, day 11 melanoblast, and day 25 melanocyte). Primary melanocyte expression profiles (adult and neonatal) were used as control. Cell line expression profiles from the CCLE and GSDC databases were downloaded from the respective resource websites (http://www.broadinstitute.org/ccle; http://www.cancerrxgene.org/downloads). For each dataset, microarray probes were collapsed to gene symbol to the maximum average probe. To have a gene list compatible for all datasets used, the inventors took an intersection of genes from both RNASeq and microarray chip platforms, resulting in 10,545 genes.
Principal component analysis (PCA) was performed on mean centered data and all statistical analyses were performed in R (http://www.R-project.org/). Projections were calculated by matrix multiplication of the centered data to be projected using the rotation matrix determined from the PCA of the original source data. ANOVA p-values were determined using the non-parametric Kruskal-Wallis test at a significance threshold of 0.05. Reported p-values between pairs of subtypes were determined using Dunn post-hoc testing with multiple hypothesis correction using the Benjamini & Hochberg method. Heatmaps and figures were generated using pheatmap and ggplot2 R packages.

[2] = system: M229, M397 and M249 melanoma cell lines; test: Crystal violet staining (clonogenic) assays of long-term or cytokine combination treatment; type: cell-based, human
Description: (§1) Human melanoma cell lines of the M series were established from patient's biopsies under UCLA IRB approval #11-003254 as previously described (Søndergaard et al., 2010). Cells were cultured in RPMI 1640 with L-glutamine, 10% fetal bovine serum, and 1% penicillin, streptomycin and fungizone in a water-saturated incubator at 37° C. with 5% CO2. Cells were maintained and tested for mycoplasma, and regularly authenticated to their early passages using GenePrint® 10 System (Promega). Presence of mutations in the genes of interest were checked by OncoMap 3 or lontrone, and was confirmed by PCR and Sanger sequencing as previously described (Wong et al., 2014). Vemurafenib (PLX 4032), erastin, Z-VAD-FMK, R428 and piperlongumine were all purchased from Selleck Chemicals. Deferoxamine was obtained from Sigma-Aldrich. Staurosporine was obtained from Cayman Chemicals. Trolox was obtained from Acros Organics. Recombinant TNFα and IFNγ were both obtained from Peprotech. For the BRAFi timecourse study, M229 was treated with vemurafenib or DMSO for the indicated timepoints at twice the 50% inhibition concentration (500 nM). For the crystal violet assays, cells for seeded at low density in 6-well plates. The next day media was replaced by drug media and replenished every 2-3 days. Plates were stained with crystal violet solution (1% crystal violet, 10% methanol). Control wells were grown for 1 week and stained when 100% confluent.

[3] = system: human melanoma cell lines of the M series; test: Cell viability dose-response (CellTiter-Glo) across M series melanoma cell lines; type: cell-based
Description: as §1
All cell viability assays were assayed in 96-well format with 5000 cells seeded per well. Dose-response curves were assayed using CellTiter-Glo luminescent cell viability assay (Promega, G7572). For all other measurements of viable cells, a fluorescent resazurin-based (Sigma-Aldrich, R7017) assay (AlamarBlue) was used with fluorescence measured at 570/600 ex/em wavelength. Percentage cell viability is reported as a percentage relative to the negative control treatment. Measurement of dead cells per time was measured by incubating treated cells with the IncuCyte Cytotox Red Reagent and imaging with IncuCyte ZOOM Live-Cell Imaging System (Essen BioScience). […]

[4] = system: undifferentiated signature cell lines M296, M410 M229R, and M238R; test: Cell death and rescue assays (resazurin viability, IncuCyte Cytotox Red, trypan blue exclusion); type: cell-based, human
Description: All cell viability assays were assayed in 96-well format with 5000 cells seeded per well. Dose-response curves were assayed using CellTiter-Glo luminescent cell viability assay (Promega, G7572). For all other measurements of viable cells, a fluorescent resazurin-based (Sigma-Aldrich, R7017) assay (AlamarBlue) was used with fluorescence measured at 570/600 ex/em wavelength. Percentage cell viability is reported as a percentage relative to the negative control treatment. Measurement of dead cells per time was measured by incubating treated cells with the IncuCyte Cytotox Red Reagent and imaging with IncuCyte ZOOM Live-Cell Imaging System (Essen BioScience). Trypan blue exclusion was also used for cell death assays.

[5] = system: melanoma cell lines; test: Immunoblot of differentiation biomarkers (AXL, NGFR, MITF, MART-1) and pERK; type: cell-based, human; settings: IFNγ=100 U/mL, TNFα=1000 U/mL; M229, M397, M249
Description: Cells were lysed in modified RIPA buffer (50 mM Tris-HCl (pH 7.5), […], 10 mM β-glycerophosphate, 1% NP-40, 0.25% sodium deoxycholate, 10 mM sodium pyrophosphate, 30 mM sodium fluoride, 1 mM EDTA, 1 mM vanadate, 20 μg/ml aprotinin, 20 μg/ml leupeptin, and 1 mM phenylmethylsulfonyl fluoride). Whole-cell lysates were resolved by SDS-PAGE on TruPAGE 4-15% gradient gels (Sigma-Aldrich) and blotted onto nitrocellulose membranes. Membranes were blocked overnight with 5% milk and then incubated sequentially with primary and then IRDye-conjugated secondary antibodies (Li-Cor). Blots were imaged using the Odyssey Infrared Imaging System (Li-Cor). Primary antibodies used for Western blot analysis were MITF (DGG7V, CST), MART-1 (A103, SCBT), and AXL (C89E7, CST).

For `O=C1c2ccccc2-c2nc3nonc3nc21` [SMER-3], which “specificity of cell death-inducing compound for dedifferentiated melanoma cells” value [1] is on record?
Its value is “specificity for dedifferentiated melanoma cells”.

Which results are given for `COC(=O)c1ccc([C@H]2c3[nH]c4ccccc4c3C[C@H](C(=O)OC)N2C(=O)CCl)cc1` [RSL3, (1S,3R)-RSL3]?
sensitivity upon IFNγ cytokine treatment ([2]; M249, higher doses (5 μM erastin, 500 nM RSL3)): increased sensitivity; long-term persisting cells ([2]; combined with vemurafenib (1 μM), 16-24 days, M229, M397, M249): substantial decrease; cell death compared to cytokine-only or untreated cells ([2]; in the presence of TNFα or IFNγ, 7 days): increased cell death; sensitivity (CTRP AUC) with increased dedifferentiation status [1]: increased sensitivity; sensitivity in cell lines with vemurafenib-induced dedifferentiation ([3]; acquired resistance lines (P vs R) or long-term adaptive resistance (44 days)): increased sensitivity; sensitivity with dedifferentiation ([3]; across M series melanoma cell lines): increased sensitivity

How did the “specificity of cell death-inducing compound for dedifferentiated melanoma cells” value [1] turn out when `CC1(C)CC(=O)c2c(C(F)(F)F)nn(-c3ccc(C(N)=O)c(N[C@H]4CC[C@H](O)CC4)c3)c2C1` [SNX-2112] was run?
Its value is “specificity for dedifferentiated melanoma cells”.

Which “specificity of cell death-inducing compound for dedifferentiated melanoma cells” value [1] does the source give for ML334 diastereomer here?
The value was “specificity for dedifferentiated melanoma cells”.

With `COc1cc(Nc2ncc(F)c(Nc3ccc4c(n3)NC(=O)C(C)(C)O4)n2)cc(OC)c1OC` [tamatinib] as the molecule, how does the “specificity of cell death-inducing compound for dedifferentiated melanoma cells” value [1] read?
The value was “specificity for dedifferentiated melanoma cells”.

Which “rescue of erastin-induced decrease in cell viability” value ([4]; 100 μM DFO or 150 μM Trolox with erastin) does the source give for `Cc1c(C)c2c(c(C)c1O)CCC(C)(C(=O)O)O2` (centres unmarked) [Trolox] here?
Its value is “almost completely rescued”.

Which “specificity of cell death-inducing compound for dedifferentiated melanoma cells” value [1] does the source give for `Cc1c(N)nc([C@H](CC(N)=O)NC[C@H](N)C(N)=O)nc1C(=O)N[C@H](C(=O)N[C@H](C)[C@@H](O)[C@H](C)C(=O)N[C@H](C(=O)NCCc1nc(-c2nc(C(=O)NCCC[S+](C)C)cs2)cs1)[C@@H](C)O)[C@@H](O[C@@H]1O[C@@H](CO)[C@@H](O)[C@H](O)[C@@H]1O[C@H]1O[C@H](CO)[C@@H](O)[C@H](OC(N)=O)[C@@H]1O)c1c[nH]cn1.[Br-]` [bleomycin A2] here?
Its value is “specificity for dedifferentiated melanoma cells”.

For `COc1cc(/C=C/C(=O)N2CCC=CC2=O)cc(OC)c1OC` [piperlongumine], which “differentiation stage-associated trend in sensitivity” value ([3]; among subtypes and vemurafenib resistant lines) is on record?
The value was “does not show any differentiation stage-associated trend; also recorded: no difference in sensitivity”.

For TNFα, which “differentiation state (up-regulation of AXL, decreased MITF or MART-1)” value [5] is on record?
The value was “induced de-differentiation”.

AZD4547 was tested. Which “specificity of cell death-inducing compound for dedifferentiated melanoma cells” value [1] did it give?
The value was “specificity for dedifferentiated melanoma cells”.

With `O=C(c1ccc(/C=C/c2n[nH]c3ccccc23)cc1)N1CCNCC1` [KW-2449] as the molecule, how does the “specificity of cell death-inducing compound for dedifferentiated melanoma cells” value [1] read?
The value was “specificity for dedifferentiated melanoma cells”.

Which “sensitivity (CTRP AUC) with increased dedifferentiation status” value [1] does the source give for `Cc1onc(C(=O)N2CCN(C(c3ccc(Cl)cc3)c3ccc(Cl)cc3)CC2)c1[N+](=O)[O-]` [M210, ML210] here?
The value was “increased sensitivity”.

For `COC(=O)C[C@H](NC(=O)[C@H](C)NC(=O)[C@@H](NC(=O)OCc1ccccc1)C(C)C)C(=O)CF` [Z-VAD-FMK] (Cbz-Val-Ala-Asp(OMe)-CH2F), which “rescue of apoptosis induced by staurosporine” value ([4]; trypan blue, 24 hr 1 μM staurosporine, Z-VAD-FMK pre-treatment 1 hr, positive control) is on record?
The value was “could rescue”.

What about the “rescue of death induced by erastin treatment” value ([4]; trypan blue, 24 hr 5 μM erastin, Z-VAD-FMK pre-treatment 1 hr) of the same molecule?
Its value is “could not rescue”.

`O=C(c1cc(Cc2n[nH]c(=O)c3ccccc23)ccc1F)N1CCN(C(=O)C2CC2)CC1` [olaparib] was tested. Which “specificity of cell death-inducing compound for dedifferentiated melanoma cells” value [1] did it give?
The value was “specificity for dedifferentiated melanoma cells”.

`CC(C)[C@H](O)C(=O)N[C@@H](C)C(=O)N[C@@H]1C(=O)N(C)CCc2ccccc21` [Semagacestat] was tested. Which “specificity of cell death-inducing compound for dedifferentiated melanoma cells” value [1] did it give?
The value was “specificity for dedifferentiated melanoma cells”.

How did the “specificity of cell death-inducing compound for dedifferentiated melanoma cells” value [1] turn out when `C=CC(=O)Nc1cc2c(Nc3ccc(F)c(Cl)c3)ncnc2cc1OCCCN1CCOCC1` [canertinib] was run?
Its value is “specificity for dedifferentiated melanoma cells”.

For `COc1cc2nccc(Oc3ccc(NC(=O)Nc4ccc(F)cc4F)c(F)c3)c2cc1OC` [Ki8751], which “specificity of cell death-inducing compound for dedifferentiated melanoma cells” value [1] is on record?
Its value is “specificity for dedifferentiated melanoma cells”.

How did the “specificity of cell death-inducing compound for dedifferentiated melanoma cells” value [1] turn out when `COc1cc(N2CCC(N3CCN(C)CC3)CC2)ccc1Nc1ncc(Cl)c(Nc2ccccc2S(=O)(=O)C(C)C)n1` [NVP-TAE684] was run?
The value was “specificity for dedifferentiated melanoma cells”.

`NC(=O)Nc1cc(-c2cccc(F)c2)sc1C(=O)N[C@H]1CCCNC1` [AZD7762] was tested. Which “specificity of cell death-inducing compound for dedifferentiated melanoma cells” value [1] did it give?
Its value is “specificity for dedifferentiated melanoma cells”.

For `Cc1c[nH]c(-c2cnc(NCCNc3ccc(C#N)cn3)nc2-c2ccc(Cl)cc2Cl)n1` [CHIR-99021], which “specificity of cell death-inducing compound for dedifferentiated melanoma cells” value [1] is on record?
Its value is “specificity for dedifferentiated melanoma cells”.

For `COc1ccc(N(C(=O)CCl)C(C(=O)NCCc2ccccc2)c2cccs2)cc1Cl` (centres unmarked) [ML162], which “sensitivity (CTRP AUC) with increased dedifferentiation status” value [1] is on record?
Its value is “increased sensitivity”.

How did the “specificity of cell death-inducing compound for dedifferentiated melanoma cells” value [1] turn out when `CCc1c2c(nc3ccc(O)cc13)-c1cc3c(c(=O)n1C2)COC(=O)[C@]3(O)CC` [SN-38] was run?
Its value is “specificity for dedifferentiated melanoma cells”.

With `C=C1[C@@H](C)[C@H]2[C@H](Cc3ccccc3)NC(=O)[C@]23OC(=O)/C=C/[C@H](O)CCC[C@@H](C)C/C=C/[C@H]3[C@@H]1O` [cytochalasin B] as the molecule, how does the “specificity of cell death-inducing compound for dedifferentiated melanoma cells” value [1] read?
The value was “specificity for dedifferentiated melanoma cells”.

How did the “specificity of cell death-inducing compound for dedifferentiated melanoma cells” value [1] turn out when `Cc1cnc(Nc2ccc(OCCN3CCCC3)cc2)nc1Nc1cccc(S(=O)(=O)NC(C)(C)C)c1` [TG-101348] was run?
Its value is “specificity for dedifferentiated melanoma cells”.

With `COC(=O)c1ccc2c(c1)NC(=O)/C2=C(\Nc1ccc(N(C)C(=O)CN2CCN(C)CC2)cc1)c1ccccc1` [nintedanib] as the molecule, how does the “specificity of cell death-inducing compound for dedifferentiated melanoma cells” value [1] read?
The value was “specificity for dedifferentiated melanoma cells”.

With `O=c1c2ccccc2nc(/C=C/c2cccnc2)n1Cc1ccccc1` [B02] as the molecule, how does the “specificity of cell death-inducing compound for dedifferentiated melanoma cells” value [1] read?
The value was “specificity for dedifferentiated melanoma cells”.

With `Cn1cc(-c2ccc3nnc(Sc4ccc5ncccc5c4)n3n2)cn1` [SGX-523] as the molecule, how does the “specificity of cell death-inducing compound for dedifferentiated melanoma cells” value [1] read?
Its value is “specificity for dedifferentiated melanoma cells”.

`COc1ccc(C2C(C(=O)Nc3ccccc3)=C(C)N=c3sc(=Cc4cn(Cc5ccccc5)c5ccccc45)c(=O)n32)cc1` (centres unmarked) [BCL-LZH-4] was tested. Which “specificity of cell death-inducing compound for dedifferentiated melanoma cells” value [1] did it give?
Its value is “specificity for dedifferentiated melanoma cells”.

B1: IFNγ: Recombinant IFNγ, cytokine secreted by T cells, obtained from Peprotech (protein, UniProt P01579 24-161, looked up)
Interferon gamma: QDPYVKEAENLKKYFNAGHSDVADNGTLFLGILKNWKEESDRKIMQSQIVSFYFKLFKNFKDDQSIQKSVETIKEDMNVKFFNSNKKKRDDFEKLTNYSVTDLNVQRKAIHELIQVMAELSPAAKTGKRKRSQMLFRG
B1 was tested. Which “differentiation state (up-regulation of AXL, decreased MITF or MART-1)” value [5] did it give?
The value was “induced de-differentiation”.
